Data as given in ChEMBL document CHEMBL4251651, “Synthesis and biological evaluation of 4-amino-5-cinnamoylthiazoles as chalcone-like anticancer agents” (Eur J Med Chem, 2018).
≈ marks a conversion by molar mass, not a printed value.

What was measured:
MCF7 = test: Antiproliferative activity against human MCF7 cells after 48 hrs by MTT assay; assay type: functional, cell-based; conditions: MCF7, 48 h
HepG2 [1] = test: Antiproliferative activity against human HepG2 cells after 48 hrs by MTT assay; assay type: functional, cell-based; conditions: HepG2, 48 h
SW480 = test: Antiproliferative activity against human SW480 cells after 48 hrs by MTT assay; assay type: functional, cell-based; conditions: SW480, 48 h
HepG2 [2] = test: Induction of apoptosis in human HepG2 cells assessed as necrotic cells at IC50 after 48 hrs by Annexin V-FITC/propidium iodide staining based flow cytometry (reference value: 7.77%); assay type: functional
HepG2 [3] = test: Induction of apoptosis in human HepG2 cells assessed as late apoptotic cells at IC50 after 48 hrs by Annexin V-FITC/propidium iodide staining based flow cytometry (reference value: 18.1%); assay type: functional
HepG2 [4] = test: Induction of apoptosis in human HepG2 cells assessed as early apoptotic cells at IC50 after 48 hrs by Annexin V-FITC/propidium iodide staining based flow cytometry (reference value: 11.7%); assay type: functional
HepG2 [5] = test: Induction of apoptosis in human HepG2 cells assessed as viable cells at IC50 after 48 hrs by Annexin V-FITC/propidium iodide staining based flow cytometry (reference value: 62.4%); assay type: functional
HepG2 [6] = test: Induction of apoptosis in human HepG2 cells assessed as necrotic cells at 1.2 times IC50 after 48 hrs by Annexin V-FITC/propidium iodide staining based flow cytometry (reference value: 7.77%); assay type: functional
HepG2 [7] = test: Induction of apoptosis in human HepG2 cells assessed as late apoptotic cells at 1.2 times IC50 after 48 hrs by Annexin V-FITC/propidium iodide staining based flow cytometry (reference value: 18.1%); assay type: functional
HepG2 [8] = test: Induction of apoptosis in human HepG2 cells assessed as early apoptotic cells at 1.2 times IC50 after 48 hrs by Annexin V-FITC/propidium iodide staining based flow cytometry (reference value: 11.7%); assay type: functional
HepG2 [9] = test: Induction of apoptosis in human HepG2 cells assessed as viable cells at 1.2 times IC50 after 48 hrs by Annexin V-FITC/propidium iodide staining based flow cytometry (reference value: 62.4%); assay type: functional
HepG2 [10] = test: Cell cycle arrest in human HepG2 cells assessed as accumulation at G1 phase at IC50 after 48 hrs by propidium iodide staining-based flow cytometry (reference value: 29.83%); assay type: functional
HepG2 [11] = test: Cell cycle arrest in human HepG2 cells assessed as accumulation at G1 phase at 1.2 times IC50 after 48 hrs by propidium iodide staining-based flow cytometry (reference value: 29.83%); assay type: functional
HepG2 [12] = test: Cell cycle arrest in human HepG2 cells assessed as accumulation at G2 phase at IC50 after 48 hrs by propidium iodide staining-based flow cytometry (reference value: 38.82%); assay type: functional
HepG2 [13] = test: Cell cycle arrest in human HepG2 cells assessed as accumulation at G2 phase at 1.2 times IC50 after 48 hrs by propidium iodide staining-based flow cytometry (reference value: 38.82%); assay type: functional
HepG2 [14] = test: Cell cycle arrest in human HepG2 cells assessed as accumulation at S phase at IC50 after 48 hrs by propidium iodide staining-based flow cytometry (reference value: 51.72%); assay type: functional
HepG2 [15] = test: Cell cycle arrest in human HepG2 cells assessed as accumulation at S phase at 1.2 times IC50 after 48 hrs by propidium iodide staining-based flow cytometry (reference value: 51.72%); assay type: functional

| Structure (SMILES) | IC50 (MCF7) [µg/mL] | IC50 (HepG2 [1]) [µg/mL] | IC50 (SW480) [µg/mL] | other results |
| --- | --- | --- | --- | --- |
| Nc1nc(N2CCOCC2)sc1C(=O)/C=C/c1ccc(Cl)cc1Cl | 18.6 (≈ 48.4 µM) | 12.8 (≈ 33.3 µM) | 33.2 (≈ 86.4 µM) | – |
| Nc1nc(N2CCOCC2)sc1C(=O)/C=C/c1ccc([N+](=O)[O-])cc1 | 40 (≈ 111 µM) | 27.6 (≈ 76.6 µM) | 43.3 (≈ 120 µM) | – |
| Nc1nc(N2CCOCC2)sc1C(=O)/C=C/c1ccc(Cl)cc1 | > 50 | 35.8 (≈ 102 µM) | 33.4 (≈ 95.5 µM) | – |
| Nc1nc(N2CCCCC2)sc1C(=O)/C=C/c1ccc([N+](=O)[O-])cc1 | 14.6 (≈ 40.7 µM) | 15.4 (≈ 43 µM) | 25.6 (≈ 71.4 µM) | Activity (HepG2 [2]): 24.2%; Activity (HepG2 [3]): 27.7%; Activity (HepG2 [4]): 2.1%; Activity (HepG2 [5]): 46%; Activity (HepG2 [6]): 24.2%; Activity (HepG2 [7]): 47.1%; Activity (HepG2 [8]): 2.53%; Activity (HepG2 [9]): 26.1%; Activity (HepG2 [10]): 47.1%; Activity (HepG2 [11]): 54.18%; Activity (HepG2 [12]): 30.17%; Activity (HepG2 [13]): 25.23%; Activity (HepG2 [14]): 27.92%; Activity (HepG2 [15]): 33.47% |
| Nc1nc(N2CCOCC2)sc1C(=O)/C=C/c1ccc(Br)cc1 | > 50 | > 50 | 32.7 (≈ 82.9 µM) | – |
| Nc1nc(N2CCOCC2)sc1C(=O)/C=C/c1ccccc1 | 34.7 (≈ 110 µM) | 21.4 (≈ 67.9 µM) | 30.5 (≈ 96.7 µM) | – |
| COc1cc([C@@H]2c3cc4c(cc3[C@@H](O[C@@H]3O[C@@H]5CO[C@@H](C)O[C@H]5[C@H](O)[C@H]3O)[C@H]3COC(=O)[C@H]23)OCO4)cc(OC)c1O [ETOPOSIDE] | – | – | – | Activity (HepG2 [2]): 35.5%; Activity (HepG2 [3]): 24.7%; Activity (HepG2 [4]): 2.59%; Activity (HepG2 [5]): 37.1% |

Continued, in another order:

| IC50 (MCF7) [µg/mL] | IC50 (HepG2 [1]) [µg/mL] | IC50 (SW480) [µg/mL] | Structure (SMILES) | other results |
| --- | --- | --- | --- | --- |
| 25.6 (≈ 65.3 µM) | 17.4 (≈ 44.4 µM) | 31.6 (≈ 80.5 µM) | Nc1nc(N2CCCCC2)sc1C(=O)/C=C/c1ccc(Br)cc1 | – |
| 19.5 (≈ 56.1 µM) | 12 (≈ 34.5 µM) | 29.4 (≈ 84.5 µM) | Nc1nc(N2CCCCC2)sc1C(=O)/C=C/c1ccc(Cl)cc1 | Activity (HepG2 [2]): 18.5%; Activity (HepG2 [3]): 34.4%; Activity (HepG2 [4]): 2.84%; Activity (HepG2 [5]): 44.3%; Activity (HepG2 [6]): 17.2%; Activity (HepG2 [7]): 34.7%; Activity (HepG2 [8]): 3.31%; Activity (HepG2 [9]): 44.8%; Activity (HepG2 [10]): 44.47%; Activity (HepG2 [11]): 48.58%; Activity (HepG2 [12]): 27.88%; Activity (HepG2 [13]): 37.65%; Activity (HepG2 [14]): 28.24%; Activity (HepG2 [15]): 18.26% |
| 24 (≈ 71.9 µM) | 27 (≈ 80.9 µM) | 19.9 (≈ 59.6 µM) | Nc1nc(N2CCCC2)sc1C(=O)/C=C/c1ccc(Cl)cc1 | – |
| > 50 | 35.1 (≈ 107 µM) | 17 (≈ 51.6 µM) | COc1ccccc1/C=C/C(=O)c1sc(N2CCCC2)nc1N | – |
| 12.6 (≈ 34.2 µM) | 10.6 (≈ 28.8 µM) | 18.4 (≈ 50 µM) | Nc1nc(N2CCCC2)sc1C(=O)/C=C/c1ccc(Cl)cc1Cl | Activity (HepG2 [2]): 40.8%; Activity (HepG2 [3]): 13.2%; Activity (HepG2 [4]): 1.43%; Activity (HepG2 [5]): 44.6%; Activity (HepG2 [6]): 24.4%; Activity (HepG2 [7]): 44.3%; Activity (HepG2 [8]): 7.12%; Activity (HepG2 [9]): 24.2%; Activity (HepG2 [10]): 22.09%; Activity (HepG2 [11]): 27.04%; Activity (HepG2 [12]): 64.84%; Activity (HepG2 [13]): 68.37%; Activity (HepG2 [14]): 14.64%; Activity (HepG2 [15]): 16.34% |
| 25.5 (≈ 66.7 µM) | 22.9 (≈ 59.9 µM) | 36.8 (≈ 96.3 µM) | Nc1nc(N2CCCCC2)sc1C(=O)/C=C/c1ccc(Cl)cc1Cl | – |
| 22.4 (≈ 71.5 µM) | 16.6 (≈ 53 µM) | 28.1 (≈ 89.7 µM) | Nc1nc(N2CCCCC2)sc1C(=O)/C=C/c1ccccc1 | – |
| 41.3 (≈ 109 µM) | 30 (≈ 79.3 µM) | 15.8 (≈ 41.8 µM) | Nc1nc(N2CCCC2)sc1C(=O)/C=C/c1ccc(Br)cc1 | – |
| 21.7 (≈ 72.5 µM) | 29.6 (≈ 98.9 µM) | 31.7 (≈ 106 µM) | Nc1nc(N2CCCC2)sc1C(=O)/C=C/c1ccccc1 | – |
| 26.3 (≈ 76.4 µM) | 23.5 (≈ 68.2 µM) | 22.4 (≈ 65 µM) | Nc1nc(N2CCCC2)sc1C(=O)/C=C/c1ccc([N+](=O)[O-])cc1 | – |
